# Data reported in paper PMC11822212, “High-throughput screening identifies Aurora kinase B as a critical therapeutic target for Merkel cell carcinoma” (Nature Communications, 2025).
# Read-outs that look alike come from different tables or passages of the source.
# Assays:
# [1] = tested on: MCC cell lines (WAGA, MKL-1, MKL-2, MCC13, MCC26, UISO); test: qHTS cell viability, all six MCC cell lines as a group (mean AUC, MCC.avg); format: cell-based, human
# MCC13 cells (VN-MCC) = test: qHTS cell viability (CellTiter-Glo, 72 h; primary and follow-up small molecule screen); format: cell-based, human
# CRL-7250 cells = test: qHTS cell viability (CellTiter-Glo, 72 h; primary screen), control cell line; format: cell-based
# MCC26 cells (VN-MCC) = test: qHTS cell viability (CellTiter-Glo, 72 h; primary and follow-up small molecule screen); format: cell-based, human
# MKL-2 cells (VP-MCC) = test: as above; format: cell-based, human
# WAGA cells (VP-MCC) = test: as above; format: cell-based, human
# MKL-1 cells (VP-MCC) = test: as above; format: cell-based, human
# UISO cells (VN-MCC) = test: as above; format: cell-based, human
# HEK293T cells = test: qHTS cell viability (CellTiter-Glo, 72 h; primary screen), control cell line; format: cell-based, human
# [2] = tested on: six MCC cell lines and four control cell lines; test: qHTS cell viability, all 10 cell lines screened; format: cell-based
# [3] = tested on: VP-MCC cell lines (WAGA, MKL-1, MKL-2); test: qHTS cell viability, VP-MCC cell lines as a group (mean AUC, VP.MCC.avg); format: cell-based, human
# NIH-3T3 cells = test: qHTS cell viability (CellTiter-Glo, 72 h; primary screen), control cell line; format: cell-based, mouse
# [4] = tested on: control cell lines (HACAT, HEK293T, CRL-7250, NIH-3T3); test: qHTS cell viability, control cell lines as a group (mean AUC, Control.avg); format: cell-based
# HACAT cells = test: qHTS cell viability (CellTiter-Glo, 72 h; primary screen), control cell line; format: cell-based, human
# [5] = tested on: VN-MCC cell lines (MCC13, MCC26, UISO); test: qHTS cell viability, VN-MCC cell lines as a group (mean AUC, VN.MCC.avg); format: cell-based, human
smiles,measurement,setting,value
CCC(=O)O[C@@H]1C=C2CCC3C(CCC4(C)C3CC[C@@H]4OC(=O)CC)C2CC1 (stereo partly shown) [Bolandiol dipropionate],MCC_Avg_AUC,[1],449.182
same,MCC13_AUC,MCC13 cells (VN-MCC),478.899
same,CRL7250_AUC,CRL-7250 cells,480.859
same,MCC26_AUC,MCC26 cells (VN-MCC),482.222
same,MKL2_AUC,MKL-2 cells (VP-MCC),411.71
same,WAGA_AUC,WAGA cells (VP-MCC),383.532
same,MKL1_AUC,MKL-1 cells (VP-MCC),411.821
same,UISO_AUC,UISO cells (VN-MCC),526.911
same,HEK293T_AUC,HEK293T cells,471.071
same,Control-MCC,[2],22.5458
same,Control-VP-MCC,[3],69.3739
same,VP-MCC_Avg_AUC,[3],402.354
same,NIH3T3_AUC,NIH-3T3 cells,491.81
same,Control_Avg_AUC,[4],471.728
same,HACAT_AUC,HACAT cells,443.174
same,Control-VN-MCC,[5],-24.2823
same,VN-MCC_Avg_AUC,[5],496.011
O=C(CCCN1CCC(O)(c2ccc(Br)cc2)CC1)c1ccc(F)cc1 [Bromperidol],MCC_Avg_AUC,"[1]; NPC library, mean AUC of six MCC cell lines",305.111
same,MCC13_AUC,"MCC13 cells (VN-MCC); NPC library, qHTS dose-response AUC, MCC13",492.435
same,MCC13_AUC,"MCC13 cells (VN-MCC); area under the dose-response curve, MCC13 cells, AUC<450 = reduced viability",492.435
same,Area under the dose-response curve (AUC) MCC13 Replicate 1,"MCC13 cells (VN-MCC); follow-up screen, MCC13, replicate 1",481.5
same,Area under the dose-response curve (AUC) MCC13 Replicate 2,"MCC13 cells (VN-MCC); follow-up screen, MCC13, replicate 2",447.1
same,Area under the dose-response curve (AUC) MCC13 Replicate 3,"MCC13 cells (VN-MCC); follow-up screen, MCC13, replicate 3",475.2
same,CRL7250_AUC,"CRL-7250 cells; NPC library, qHTS dose-response AUC, CRL7250 control",469.585
same,CRL7250_AUC,"CRL-7250 cells; area under the dose-response curve, CRL7250 control cells, AUC<450 = reduced viability",469.584
same,MCC26_AUC,"MCC26 cells (VN-MCC); NPC library, qHTS dose-response AUC, MCC26",508.837
same,MCC26_AUC,"MCC26 cells (VN-MCC); area under the dose-response curve, MCC26 cells, AUC<450 = reduced viability",508.837
same,Area under the dose-response curve (AUC) MCC26 Replicate 1,"MCC26 cells (VN-MCC); follow-up screen, MCC26, replicate 1",451.5
same,Area under the dose-response curve (AUC) MCC26 Replicate 2,"MCC26 cells (VN-MCC); follow-up screen, MCC26, replicate 2",430.2
same,Area under the dose-response curve (AUC) MCC26 Replicate 3,"MCC26 cells (VN-MCC); follow-up screen, MCC26, replicate 3",459.8
same,MKL2_AUC,"MKL-2 cells (VP-MCC); NPC library, qHTS dose-response AUC, MKL2",116.273
same,MKL2_AUC,"MKL-2 cells (VP-MCC); area under the dose-response curve, MKL-2 cells, AUC<450 = reduced viability",116.273
same,Area under the dose-response curve (AUC) MKL-2 Replicate 1,"MKL-2 cells (VP-MCC); follow-up screen, MKL-2, replicate 1",432.2
same,Area under the dose-response curve (AUC) MKL-2 Replicate 2,"MKL-2 cells (VP-MCC); follow-up screen, MKL-2, replicate 2",463.9
same,Area under the dose-response curve (AUC) MKL-2 Replicate 3,"MKL-2 cells (VP-MCC); follow-up screen, MKL-2, replicate 3",462.5
same,WAGA_AUC,"WAGA cells (VP-MCC); NPC library, qHTS dose-response AUC, WAGA",81.0002
same,WAGA_AUC,"WAGA cells (VP-MCC); area under the dose-response curve, WAGA cells, AUC<450 = reduced viability",81.0002
same,Area under the dose-response curve (AUC) WAGA Replicate 1,"WAGA cells (VP-MCC); follow-up screen, WAGA, replicate 1",490.2
same,Area under the dose-response curve (AUC) WAGA Replicate 2,"WAGA cells (VP-MCC); follow-up screen, WAGA, replicate 2",473.6
same,Area under the dose-response curve (AUC) WAGA Replicate 3,"WAGA cells (VP-MCC); follow-up screen, WAGA, replicate 3",491.6
same,MKL1_AUC,"MKL-1 cells (VP-MCC); NPC library, qHTS dose-response AUC, MKL1",166.857
same,MKL1_AUC,"MKL-1 cells (VP-MCC); area under the dose-response curve, MKL-1 cells, AUC<450 = reduced viability",166.857
same,Area under the dose-response curve (AUC) MKL-1 Replicate 1,"MKL-1 cells (VP-MCC); follow-up screen, MKL-1, replicate 1",478.5
same,Area under the dose-response curve (AUC) MKL-1 Replicate 2,"MKL-1 cells (VP-MCC); follow-up screen, MKL-1, replicate 2",458.4
same,Area under the dose-response curve (AUC) MKL-1 Replicate 3,"MKL-1 cells (VP-MCC); follow-up screen, MKL-1, replicate 3",486.1
same,UISO_AUC,"UISO cells (VN-MCC); NPC library, qHTS dose-response AUC, UISO",465.264
same,UISO_AUC,"UISO cells (VN-MCC); area under the dose-response curve, UISO cells, AUC<450 = reduced viability",465.264
same,Area under the dose-response curve (AUC) UISO Replicate 1,"UISO cells (VN-MCC); follow-up screen, UISO, replicate 1",462.9
same,Area under the dose-response curve (AUC) UISO Replicate 2,"UISO cells (VN-MCC); follow-up screen, UISO, replicate 2",471.4
same,Area under the dose-response curve (AUC) UISO Replicate 3,"UISO cells (VN-MCC); follow-up screen, UISO, replicate 3",450.6
same,HEK293T_AUC,"HEK293T cells; NPC library, qHTS dose-response AUC, HEK293T control",458.67
same,HEK293T_AUC,"HEK293T cells; area under the dose-response curve, HEK293T control cells, AUC<450 = reduced viability",458.67
same,Control-MCC,"[2]; NPC library, therapeutic window: Control avg AUC minus MCC avg AUC",161.551
same,VP-MCC_Avg_AUC,"[3]; NPC library, mean AUC of VP-MCC cell lines",121.377
same,Control-VP-MCC,"[3]; NPC library, therapeutic window: Control avg AUC minus VP-MCC avg AUC",345.285
same,NIH3T3_AUC,"NIH-3T3 cells; NPC library, qHTS dose-response AUC, NIH3T3 control",484.97
same,NIH3T3_AUC,"NIH-3T3 cells; area under the dose-response curve, NIH3T3 control cells, AUC<450 = reduced viability",484.97
same,Control_Avg_AUC,"[4]; NPC library, mean AUC of control cell lines",466.662
same,HACAT_AUC,"HACAT cells; NPC library, qHTS dose-response AUC, HACAT control",453.423
same,HACAT_AUC,"HACAT cells; area under the dose-response curve, HACAT control cells, AUC<450 = reduced viability",453.423
same,VN-MCC_Avg_AUC,"[5]; NPC library, mean AUC of VN-MCC cell lines",488.845
same,Control-VN-MCC,"[5]; NPC library, therapeutic window: Control avg AUC minus VN-MCC avg AUC",-22.1834
CN(C)CCc1c[nH]c2ccc(O)cc12 [Bufotenine],MCC_Avg_AUC,[1],427.925
same,MCC13_AUC,MCC13 cells (VN-MCC),457.919
same,CRL7250_AUC,CRL-7250 cells,497.008
same,MCC26_AUC,MCC26 cells (VN-MCC),406.205
same,MKL2_AUC,MKL-2 cells (VP-MCC),417.248
same,WAGA_AUC,WAGA cells (VP-MCC),422.913
same,MKL1_AUC,MKL-1 cells (VP-MCC),439.853
same,UISO_AUC,UISO cells (VN-MCC),423.411
same,HEK293T_AUC,HEK293T cells,488.2
same,Control-MCC,[2],65.5458
same,Control-VP-MCC,[3],66.7991
same,VP-MCC_Avg_AUC,[3],426.671
same,NIH3T3_AUC,NIH-3T3 cells,494.482
same,Control_Avg_AUC,[4],493.471
same,HACAT_AUC,HACAT cells,494.192
same,Control-VN-MCC,[5],64.2925
same,VN-MCC_Avg_AUC,[5],429.178
